Measured values reported in PMC6320956, “O-Aminoalkyl-O-Trimethyl-2,3-Dehydrosilybins: Synthesis and In Vitro Effects Towards Prostate Cancer Cells” (Molecules, 2018).
Like-named read-outs stand apart in the source and are kept apart here.

Legend:
DU145 cells [1] = test: WST-1 cell proliferation assay, DU145; assay type: cell-based, human; details: for IC50 (Silibinin)/IC50(Derivative) DU145: fold potency relative to silibinin; for IC50: Homo sapiens, DU-145, 72 h, WST-1, three days of exposure, mean ± SD, n = 3
Experimental: (§1) The in vitro antiproliferative activities of six 7-O-substituted and 26 3-O-substituted silybin derivatives were evaluated using the WST-1 cell proliferation assay, according to the procedure as described in the Experimental Section in both androgen-sensitive (LNCaP) and androgen-insensitive (PC-3 and DU145) human prostate cancer cell lines. Silibinin and docetaxel were used as a positive control for comparison in the parallel experiments and the IC50 values calculated from the dose-response curves are summarized in Table 1. […] A three-carbon linker in 11 and 29, as well as a five-carbon linker in 31, 37 and 40, are beneficial to the potency.
(§2) All cell lines were initially purchased from American Type Culture Collection (ATCC^TM) (Manassas, VA, USA). The PC-3 and LNCaP prostate cancer cell lines were routinely cultured in RPIM-1640 medium supplemented with 10% FBS and 1% penicillin/streptomycin. The DU145 prostate cancer cells were routinely cultured in Eagle’s Minimum Essential Medium (EMEM) supplemented with 10% FBS and 1% penicillin/streptomycin. Cultures were maintained in a high humidity environment supplemented with 5% carbon dioxide at a temperature of 37 °C.
(§3) PC-3, DU145, or LNCaP cells were plated in 96-well plates at a density of 3,200 per well in 200 µL of culture medium. The cells were then separately treated with silibinin, or synthesized silibinin derivatives, at five different doses for three days, while equal treatment volumes of DMSO (0.25%) were used as the vehicle control. The cells were cultured in a CO2 incubator at 37 °C for three days. A total of 10 µL of the premixed WST-1 cell proliferation reagent (Clontech) was added to each well. After mixing gently for one min on an orbital shaker, the cells were incubated for an additional 3 h at 37 °C. To ensure a homogeneous distribution of color, it is important to mix gently on an orbital shaker for one min. The absorbance of each well was measured using a microplate reader (Synergy HT, BioTek, Winooski, VT, USA) at a wavelength of 430 nm. […] For calculating the IC50 values, a linear proliferative inhibition was made based on at least five dosages for each compound.

PC-3 cells [2] = details: WST-1, three days of exposure; cited from earlier work
PC-3 cells [3] = test: WST-1 cell proliferation assay, PC-3; assay type: cell-based, human; details: for IC50 (Silibinin)/IC50(Derivative) PC-3: fold potency relative to silibinin; for IC50: WST-1, three days of exposure, mean ± SD, n = 3
Experimental: as §1, §2, §3

LNCaP cells [4] = details: WST-1, three days of exposure; cited from earlier work
LNCaP cells [5] = test: WST-1 cell proliferation assay, LNCaP; assay type: cell-based, human; details: for IC50 (Silibinin)/IC50(Derivative) LNCaP: fold potency relative to silibinin; for IC50: WST-1, three days of exposure, mean ± SD, n = 3
Experimental: as §1, §2, §3

DU145 cells [6] = details: WST-1, three days of exposure; cited from earlier work
PC-3 cells [7] = test: F2N12S and SYTOX AADvanced double staining apoptosis assay; assay type: cell-based, human
[8] = test system: PWR-1E non-neoplastic human prostate epithelial cells; test: WST-1 cell proliferation assay, PWR-1E non-neoplastic cells; assay type: cell-based; details: for IC50: Homo sapiens, PWR-1E, 72 h, WST-1, three days of exposure, mean ± SD, n = 3
Experimental: (§4) Silibinin and five potent derivatives (11, 29, 31, 37, and 40) were selected for further evaluation against the MCF 10A non-neoplastic human mammary epithelial cell line and PWR-1E non-neoplastic human prostate epithelial cells.
as §3

PC-3 cells [9] = test: Cell cycle analysis by flow cytometry (propidium iodide); assay type: cell-based, human; details: 20 µM, 16 h; controls 55.7% (11), 36.2% (29), 33.1% (31, 37, 40)
Experimental: Silibinin can arrest the rat (H-7 and I-8) and human prostate cancer cell (LNCaP) cycle at the G1 phase, and cause G1 and G2-M PC-3 prostate cancer cell cycle arrest.
PC-3 cells were plated in 24-well plates at a density of 200,000 per well in 400 µL of culture medium. […] […] Both attached and floating cells were collected in a centrifuge tube by centrifugation at an rcf value of 450 g for 5 min. After discarding the supernatant, the collected cells were re-suspended with 500 µL 80% cold ethanol to fix them for 30 min in 4 °C. The fixed cells could be stored at −20 °C for one week. After fixation, the ethanol was removed after centrifuging and the cells were washed with PBS. The cells were then re-suspend with 100 μL of […] ribonuclease and were cultured at 37 °C for 30 min to degrade all RNA. The cells were stained with 200 μL of 50 μg/mLpropidium iodide stock solution for 30 min at […], and then the fluorescence intensity of PI was detected in individual PC-3 cells using an Attune flow cytometer (Life Technologies, Carlsbad, CA, USA) within 0.5 to 1 h after staining.

[10] = test system: MCF 10A non-neoplastic human mammary epithelial cell line; test: WST-1 cell proliferation assay, MCF 10A non-neoplastic cells; assay type: cell-based; details: for IC50: Homo sapiens, MCF-10A, 72 h, WST-1, three days of exposure, mean ± SD, n = 3
Experimental: as §4, §3

[11] = test system: prostate cancer cell lines (LNCaP, PC-3 and DU145); test: WST-1 cell proliferation assay, three prostate cancer cell lines together; assay type: cell-based, human; details: range for the five optimal derivatives over PC-3, DU145, LNCaP; for IC50: Homo sapiens
Description: As part of our ongoing silybin project, this study aims to introduce a basic nitrogen-containing group to 7-OH of 3,5,20-O-trimethyl-2,3-dehydrosilybin or 3-OH of 5,7,20-O-trimethyl-2,3-dehydrosilybin via an appropriate linker for in vitro evaluation as potential anti-prostate cancer agents. The synthetic approaches to 7-O-substituted-3,5,20-O-trimethyl-2,3-dehydrosilybins through a five-step procedure and to 3-O-substituted-5,7,20-O-trimethyl-2,3- dehydrosilybins via a four-step transformation have been developed. Thirty-two nitrogen-containing derivatives of silybin have been achieved through these synthetic methods for the evaluation of their antiproliferative activities towards both androgen-sensitive (LNCaP) and androgen-insensitive prostate cancer cell lines (PC-3 and DU145) using the WST-1 cell proliferation assay. […] All these five optimal derivatives can arrest the PC-3 cell cycle in the G0/G1 phase and promote PC-3 cell apoptosis.
as §3
In summary, six 7-O-aminoalkyl-3,5-20-O-trimethyl-2,3-dehydrosilybins and 26 3-O-aminoalkyl-5,7,20-O-trimethyl-2,3-dehydrosilybins have been successfully synthesized through a five-step and four-step sequence, respectively. The synthetic methods can be used for the general synthesis of 7-O-substituted-3,5,20-O-trimethyl-2,3-dehydrosilybins and 3-O-substituted-5,7,20-O- trimethyl-2,3-dehydrosilybins. The antiproliferative activities of the 32 derivatives against three prostate cancer cell lines have been evaluated using the WST-1 cell proliferation assay. […] All these five optimal derivatives can cause PC-3 cell accumulation in a G0/G1 phase by increasing the cell population in this phase at 16 h. Derivatives 11, 37, and 40 show a stronger ability than derivatives 29 and 31 in activating PC-3 cell apoptosis by inducing appreciable levels of apoptotic cell death at a 5 µM concentration after 16 h of treatment.

[12] = 10 µM, 16 h, range over 11, 37, 40
[13] = 20 µM, 16 h, range over 11, 37, 40

SMILES: CCOc1cc(O)c2c(=O)c(O)c(-c3ccc4c(c3)OC(c3ccc(O)c(OC)c3)C(CO)O4)oc2c1 (centres unmarked) [Compound 3, 7-O-ethyl-2,3-dehydrosilybin, reference compound]
- IC50 (Silibinin)/IC50(Derivative) DU145 (DU145 cells [1]): 12
- IC50 (PC-3 cells [2]): 3.25 ± 0.31 µM
- IC50 (Silibinin)/IC50(Derivative) PC-3 (PC-3 cells [3]): 22
- IC50 (LNCaP cells [4]): 2.58 ± 0.07 µM
- IC50 (Silibinin)/IC50(Derivative) LNCaP (LNCaP cells [5]): 17
- IC50 (DU145 cells [6]): 7.59 ± 0.66 µM

SMILES: CNCCCOc1cc(OC)c2c(=O)c(OC)c(-c3ccc4c(c3)OC(c3ccc(OC)c(OC)c3)C(CO)O4)oc2c1 (centres unmarked) [Compound 9, 7-O-(N-Methylaminopropyl)-3,5,20-O-trimethyl-2,3-dehydrosilybin]
- IC50 (DU145 cells [1]): 39.6 ± 9.49 µM
- IC50 (Silibinin)/IC50(Derivative) DU145 (DU145 cells [1]): 2
- IC50 (PC-3 cells [3]; Homo sapiens, PC-3, 72 h): 42.6 ± 6.61 µM
- IC50 (Silibinin)/IC50(Derivative) PC-3 (PC-3 cells [3]): 2
- IC50 (LNCaP cells [5]; Homo sapiens, LNCaP, 72 h): 12.1 ± 1.81 µM
- IC50 (Silibinin)/IC50(Derivative) LNCaP (LNCaP cells [5]): 4
- melting point: 125 to 127 °C

SMILES: CCCN(CCC)CCCOc1cc(OC)c2c(=O)c(OC)c(-c3ccc4c(c3)OC(c3ccc(OC)c(OC)c3)C(CO)O4)oc2c1 (centres unmarked) [Compound 11]
- early phase apoptosis in PC-3 cells (PC-3 cells [7]; 5 µM, 16 h, range over 11, 37, 40): 26–59%
- early apoptotic cells (PC-3 cells [7]; [12]): 56–76%
- late apoptotic/necrotic cells (PC-3 cells [7]; [12]): 6–40%
- early apoptotic cells (PC-3 cells [7]; [13]): 54–75%
- late apoptotic/necrotic cells (PC-3 cells [7]; [13]): 16–44%
- concentration at which the apoptotic cell population reached its maximum (PC-3 cells [7]; PC-3, 16 h): 5 µM
- IC50 (DU145 cells [1]): 1.84 ± 0.14 µM
- IC50 (Silibinin)/IC50(Derivative) DU145 (DU145 cells [1]): 51
- IC50 (Silibinin)/IC50(Derivative) PC-3 (PC-3 cells [3]): 52
- IC50 [8]: > 50 µM
- antiproliferative activity towards PWR-1E ([8]; up to a 50 µM concentration): does not demonstrate apparent antiproliferative activity
- PC-3 cell population in G0/G1 phase (PC-3 cells [9]): 66.3%
- IC50 [10]: > 50 µM
- antiproliferative activity towards MCF 10A ([10]; up to a 50 µM concentration): does not demonstrate apparent antiproliferative activity
- IC50 (LNCaP cells [5]; Homo sapiens, LNCaP, 72 h): ≤ 3 µM
- IC50 (LNCaP cells [5]): 1.82 ± 0.14 µM
- IC50 (Silibinin)/IC50(Derivative) LNCaP (LNCaP cells [5]): 24
- IC50 [11]: 1.4 to 3.06 µM
- fold improvement in potency compared to silibinin [11]: 17- to 52 fold

SMILES: COc1cc(C2Oc3cc(-c4oc5cc(O)cc(O)c5c(=O)c4O)ccc3OC2CO)ccc1O (centres unmarked) [Compound 2, 2,3-dehydrosilybin]
- IC50 (Silibinin)/IC50(Derivative) DU145 (DU145 cells [1]): 8
- IC50 (PC-3 cells [2]): 9.45 ± 0.56 µM
- IC50 (Silibinin)/IC50(Derivative) PC-3 (PC-3 cells [3]): 8
- IC50 (LNCaP cells [4]): 3.09 ± 1.3 µM
- IC50 (Silibinin)/IC50(Derivative) LNCaP (LNCaP cells [5]): 14
- IC50 (DU145 cells [6]): 11.5 ± 1.42 µM

SMILES: CCCCN(CCCC)CCCOc1c(-c2ccc3c(c2)OC(c2ccc(OC)c(OC)c2)C(CO)O3)oc2cc(OC)cc(OC)c2c1=O (centres unmarked) [Compound 29]
- maximum apoptotic cell population (PC-3 cells [7]; 50 µM, 16 h): 71%
- apoptotic cell death (PC-3 cells [7]; up to a 10 µM concentration, 16 h): less than 10%
- IC50 (DU145 cells [1]): 2.51 ± 0.04 µM
- IC50 (PC-3 cells [3]; Homo sapiens, PC-3, 72 h): ≤ 3 µM
- IC50 (PC-3 cells [3]): 2.73 ± 0.12 µM
- IC50 [8]: < 5 µM
- PC-3 cell population in G0/G1 phase (PC-3 cells [9]): 50.3%
- IC50 [10]: < 5 µM
- IC50 (LNCaP cells [5]; Homo sapiens, LNCaP, 72 h): ≤ 3 µM
- IC50 (LNCaP cells [5]): 2.21 ± 0.17 µM
- IC50 [11]: 1.4 to 3.06 µM
- fold improvement in potency compared to silibinin [11]: 17- to 52 fold
